Measurements as given in patent US9238014B2, “Pharmaceutical composition for treating alcohol dependency” (priority 2009, dated 2016).
Counter-ions that a name gives are not always drawn.

Tested on: male mouse of the C57BL/6J line
Assay: Alcohol/water preference (alcohol consumption) after forced alcoholization in mice
Type: in vivo
Parameters: key to Alcohol/Water preference index (Pref.), Mean / Alcohol/Water preference index (Pref), Mean: Pref = (Alcohol−Water)/(Alcohol+Water); >0 alcohol, <0 water preference
Conditions: for Alcohol/Water preference index (Pref), Mean: Example 2, Table D, n = 9; for effect on alcohol consumption (in words): same model and same doses, administered separately or in combination as stated; for Alcohol/Water preference index (Pref.), Mean: Experiment A, single agent 1 mg/kg injected before session, n = 6; for effect on alcoholic preference (in words): on this model and at the doses used, vs saline control, significant if p≦0.05
Protocol: All the products used for the treatments are dissolved in saline (0.9% NaCl) so that the injection volume is 10 ml/kg of body weight.
The animals are kept in their cage throughout the experiment. They are subjected to forced alcoholization, with 10% alcohol as the only drink, for 15 days. They are then returned to normal conditions with water to drink.
Different groups of mice are constituted depending on the treatments: controls (injected with saline), prazosin 1 mg/kg, cyproheptadine 1 mg/kg, prazosin 1 mg/kg+cyproheptadine 1 mg/kg, prazosin 0.5 mg/kg+cyproheptadine 1 mg/kg,
The tests begin 24 hours after forced alcoholization is stopped. They proceed during the first two hours of darkness (period of activity), during which the animals have access to a feeder with water and a feeder with alcohol. The amounts of water and of alcohol consumed are measured after said two hours.
Several sessions of measuring the consumption of water and of alcohol are carried out. For the first 2 sessions (S1-S2) the animals receive an injection of saline; they receive the treatments (prazosin, cyproheptadine, prazosin+cyproheptadine) or saline (for the control group) in the next sessions (T1, T2, T3). The treatments are carried out 10 minutes before each session.
The Alcohol/Water preference index (Pref.) is calculated as follows: Pref.=(Consumption Alcohol−Water)/(Consumption Alcohol+Water)
0<Pref.≦1: Preference for alcohol
Pref.=0: No preference alcohol vs water
−1≦Pref.<0: Preference for water (i.e. aversion to alcohol)
During the sessions for measuring alcohol consumption, the animals receive the treatments 30 minutes before said measurement.
The results are expressed in mean value and standard error of mean (SEM). The preference indices (Pref) of the treated groups are compared with that of the control group by the bilateral Student t-test for independent groups. The values shown (p vs Con) are the probabilities for the difference between treated group and control group being due to chance. A difference is regarded as statistically significant if p≦0.05.
The cyproheptadine/alfuzosin, cyproheptadine/terazosin and cyproheptadine/tamsulosin combinations were tested in experimental conditions identical to those described in example 1 above and using the same model.

[1] = alpha1 antagonist alone 0.5 mg/kg, treatment session T1
[2] = alpha1 antagonist alone 0.5 mg/kg, treatment session T2
[3] = alpha1 antagonist alone 0.5 mg/kg, treatment session T3

SMILES	Alcohol/Water preference index (Pref), Mean [1]	Alcohol/Water preference index (Pref), Mean [2]	Alcohol/Water preference index (Pref), Mean [3]	effect on alcohol consumption (in words)	Alcohol/Water preference index (Pref), Mean (cyproheptadine alone 1 mg/kg, treatment session T1)	Alcohol/Water preference index (Pref), Mean (cyproheptadine alone 1 mg/kg, treatment session T2)	Alcohol/Water preference index (Pref), Mean (cyproheptadine alone 1 mg/kg, treatment session T3)	Alcohol/Water preference index (Pref.), Mean (treatment session T1)	Alcohol/Water preference index (Pref.), Mean (treatment session T2)	Alcohol/Water preference index (Pref.), Mean (treatment session T3)	effect on alcoholic preference (in words)	effect on alcohol consumption (in words) (hydrochloride)	effect on alcohol consumption (in words) (listed as cyproheptadine, hydrochloride)
COc1cc2nc(N(C)CCCNC(=O)C3CCCO3)nc(N)c2cc1OC (centres unmarked) [Alfuzosin, N-[3-[(4-amino-6,7-dimethoxy-quinazolin-2-yl)-methyl-amino]propyl]tetrahydrofuran-2-carboxamide]	0.59	0.62	0.63	do not have an effect	–	–	–	–	–	–	–	–	–
CN1CCC(=C2c3ccccc3C=Cc3ccccc32)CC1 [Cyproheptadine, 4-(5H-dibenzo[a,d]cyclohepten-5-ylidene)-1-methylpiperidine hydrochloride]	–	–	–	–	0.91	0.76	0.81	0.92	0.82	0.82	do not have a significant effect	do not have an effect	do not have any effect
COc1cc2nc(N3CCN(C(=O)c4ccco4)CC3)nc(N)c2cc1OC [Prazosin, 2-[4-(2-furoyl)piperazin-1-yl]-6,7-dimethoxyquinazolin-4-amine]	–	–	–	do not have any effect	–	–	–	0.78	0.57	0.72	do not have a significant effect	–	–
CCOc1ccccc1OCCN[C@H](C)Cc1ccc(OC)c(S(N)(=O)=O)c1 [Tamsulosin, (R)-5-(2-(2-(2-ethoxyphenoxy)ethylamino)propyl)-2-methoxybenzenesulfonamide]	0.68	0.79	0.77	do not have an effect	–	–	–	–	–	–	–	–	–
COc1cc2nc(N3CCN(C(=O)C4CCCO4)CC3)nc(N)c2cc1OC (centres unmarked) [Terazosin, 6,7-dimethoxy-2-[4-(tetrahydrofuran-2-ylcarbonyl)piperazin-1-yl]quinazolin-4-amine]	0.64	0.75	0.72	do not have an effect	–	–	–	–	–	–	–	–	–
